Assay [1] deals with L. pictus eggs. Briefly: Calcium release in eggs at fertilization measured by calcium green-2. As to conditions: oxyHb-injected eggs (14 eggs).
Description: (§2) Also, co-injection of SNAP or CaM/nNOS with oxyHb. […] Subsequent activation of oxyHb-inhibited eggs by ionomycin (2 μM) or injection of either GTPγS (100 μM final) or cGMP (50 μM final).
(§3) The necessity of NO (or its equivalents) was assessed by injecting eggs with oxyHb.
Assay [2] relates to L. pictus eggs. In words: Egg activation by microinjection (fertilization envelope elevation, pronuclear centering).
Description: as §2
Assay [3] has as its system L. pictus eggs. In words: Egg activation after insemination of injected eggs. Particulars: for fertilization envelope elevation / egg activation after insemination: eggs injected with oxyHb 12.5 or 50 μM, or 50 μM BSA, apoHb, cyanometHb, 1:20,000 sperm dilution; for subsequent activation of oxyHb-inhibited eggs: after insemination, ionomycin 2 μM, GTPγS 100 μM final or cGMP 50 μM final injected.
Description: as §2, §3

Another assay deals with bovine oocytes. In words: Calcium oscillations in bovine oocytes (fura-2 AM imaging). As to conditions: oxyhemoglobin injected 30 to 45 minutes before sperm factor, ~200 uM final heme. It is filed as cell-based. How it is done: Bovine oocytes were ordered from Bomed (2433 University Avenue, Madison, Wis. 53705-3835). They collect the oocytes from the ovaries of slaughtered cows and place them immediately in maturation media to be shipped overnight.
Oocytes were matured overnight and used within 24-28 hours of collection. Oocytes were washed briefly three times in TL-HEPES media and then denuded by vortexing for 3 minutes in TL-HEPES containing 0.2% hyaluronidase. Denuded oocytes were subsequently washed in TL-HEPES and loaded with fura-2 AM by incubation at 37° C. for 15 to 30 minutes. Oocytes were attached to imaging dishes (Biopteks) using 50 μg/ml poly-D-lysine and imaged using 350/380 nm excitation and 510 nm emission filters on a Zeiss Axiovert S100 microscope and fluorescence intensity quantified using Metafluor 4.1 (Universal Imaging).
SNAP ([…]), an NO donor was synthesized prior to use by the method of Fehsel et al. (1996) Meth. Enzymol. 269:426-434. NO release was accomplished by bath addition of SNAP. Calcium release could be effectuated by addition of SNAP at varying concentrations (0.5 mM to 5 mM).
Sperm factor was prepared by the method of Wu et al. (Wu et al., 1997) and injected by a Narishige syringe microinjector to ˜2% oocyte volume. […] Calcium levels were monitored as detailed above.

In the next assay the test system is NOS. As to conditions: gamete homogenates; ornithine 1.5 mM, nitro-L-arginine 100 μM.
In assay [4] the test system is S. purpuratus eggs. Briefly: NO production after egg activation, DAF fluorescence. It is filed as cell-based. Particulars: 1 mM ionomycin, 5 min. The source says: (§1) We measure production of NO by gametes by accumulation of nitrite, an auto-oxidation product of NO, or by fluorescence changes in the NO indicator dye, diaminofluorescein (DAF). Qualitatively similar results are seen for exogenous NO production: activation of either male or female gametes results in NO accumulation in the surrounding medium (Table 1). […] Pre-treatment with inhibitors of the acrosome reaction, substantially prevents NO generation, but is triggered after subsequent addition of ionomycin (Table 2). Similarly, eggs activated by ionomycin treatment generate NO, although at lower levels than sperm (Table 1).

Assay [5] concerns S. purpuratus eggs. Briefly: NO production after egg activation, nitrite accumulation. The assay is classed as cell-based. As to conditions: 1 mM ionomycin, 5 min.
Text: as §1

Assay [6] relates to S. purpuratus sperm. In words: NO production after sperm activation, DAF fluorescence. Particulars: 5 min, 5 mM ionomycin or egg jelly. It is filed as cell-based.
Text: as §1

Assay [7] has as its system S. purpuratus sperm. In words: NO production after sperm activation, nitrite accumulation. The assay is classed as cell-based. Particulars: 5 min, 5 mM ionomycin or egg jelly, normalized to per cent acrosome reaction.
Text: as §1

This is an account of results in patent US6737272B2, “Methods for modulation of oocyte activation” (The Board of Trustees of the Leland Stanford Junior …, priority 1999, dated 2004).

Description for NOS: Absorbance at 585 nm was measured and normalized to total protein. […] This diaphorase activity is indicative of NOS activity. […] NOS activity is shown measured by citrulline conversion.
NADPH-dependent diaphorase activity or histochemical staining was assessed after a 24-h fixation of gametes. For activity measurements, gametes were lysed (sperm) or sonicated (eggs) in PBS with 1% NP-40 and incubated overnight in 1 mM NADPH, 0.5 mM NBT. Immunodepletion of diaphorase activity was done after size separation (>100K molecular weight cut-off (Amicon)). [^3H]arginine to [^3H]citrulline conversion of gamete homogenates was assessed after two cycles of freeze-thaw lysis (sperm) or Dounce homogenization (eggs) (in mM): 50 KCl, 10 NaCl, 1 EDTA, 5 DTT, 20 HEPES with PIC; pH 8. For inhibition experiments, gamete homogenates were treated with 20% (v/v) activated Dowex to remove endogenous arginine. […] NO determination by DAF fluorescence (490/515 nm) was done after incubating gametes in seawater containing 10 μM DAF.

On to “oxyHb: oxyhemoglobin, a physiological scavenger of NO”, for which the “peak Ca2+ post-fertilization” value in the assay on L. pictus eggs [1] (control 1.4±0.2 μM) was 540 ± 95 nM. The “resting Ca2+” value in the assay with L. pictus eggs [1] (control 240±30 nM) is 280 ± 65 nM. Moreover, the “egg activation by SNAP or CaM/nNOS when co-injected with oxyHb” value in the assay on L. pictus eggs [2] (co-injection) was “does not occur”. The “fertilization envelope elevation / egg activation after insemination” value with L. pictus eggs [3] was “dose-dependently inhibited”. The “pronuclear centering and first cell division” value with L. pictus eggs [3] (oxyHb-injected eggs after insemination) is 0 out of 15. In addition, the “effect on sperm factor induced calcium oscillations” value with bovine oocytes is given as “inhibition”.

“recombinant nNOS with calmodulin (CaM): recombinant CaM-nNOS complexes formed by mixing CaM with nNOS”: the “pronuclear centering (eggs exhibiting a full fertilization envelope)” value in the assay with L. pictus eggs [2] (injected eggs) is listed as 13 out of 13.

As to `[N]=O` [NO, nitric oxide], the “egg activation by bath application” value in the assay with L. pictus eggs [2] (bath application, not injected) was “ineffective”.

For the molecule “bovine serum albumin: a nitrosylable protein”, the “fertilization envelope elevation / egg activation after insemination” value with L. pictus eggs [3] is “not significantly affected”.

Take `Nc1nc2c(ncn2[C@@H]2O[C@@H]3COP(=O)(O)O[C@H]3[C@H]2O)c(=O)[nH]1` [cGMP]: the “subsequent activation of oxyHb-inhibited eggs” value with L. pictus eggs [3] is recorded as “elevate fertilization envelopes”.

For the molecule `N=C(NCCC[C@H](N)C(=O)O)N[N+](=O)[O-]` [NG-nitro-L-arginine], the “effect on citrulline conversion activity” value with NOS was “greatly suppresses”.

Take `Nc1nc2c(ncn2[C@@H]2O[C@H](COP(=O)(O)OP(=O)(O)OP(O)(O)=S)[C@@H](O)[C@H]2O)c(=O)[nH]1` [GTPS]: the “subsequent activation of oxyHb-inhibited eggs” value with L. pictus eggs [3] is on record as “elevate fertilization envelopes”.

For the molecule `C[C@H](CCC(=O)O)C[C@H](C)C[C@H](C)C(=O)/C=C(\O)[C@H](C)C[C@H](C)C/C=C/[C@@H](C)[C@@H](O)[C@@H](C)[C@@H](O)C[C@@H]1CC[C@@](C)([C@H]2CC[C@@](C)([C@@H](C)O)O2)O1` [ionomycin], the “DAF Fluorescence” value in the assay on S. purpuratus eggs [4] (Eggs (1%, v/v)) is on record as 56 ± 10 arbitrary units; with S. purpuratus eggs [4] (Eggs (2%, v/v)), 76 ± 8 arbitrary units; in the assay on S. purpuratus eggs [4] (Eggs (5%, v/v)), 112 ± 6 arbitrary units; with S. purpuratus sperm [6] (Sperm (1 μl)), 103 ± 13 arbitrary units; in the assay on S. purpuratus sperm [6] (Sperm (5 ml)), 543 ± 35 arbitrary units; in the assay with S. purpuratus sperm [6] (Sperm (10 ml)), 910 ± 93 arbitrary units. The Nitrite is 64 ± 4 pmol in the assay with S. purpuratus eggs [5] (Eggs (1%, v/v)); 82 ± 9 pmol with S. purpuratus eggs [5] (Eggs (2%, v/v)); 141 ± 10 pmol with S. purpuratus eggs [5] (Eggs (5%, v/v)); 75 ± 30 pmol in the assay with S. purpuratus sperm [7] (Sperm (1 μl)); 153 ± 15 pmol in the assay on S. purpuratus sperm [7] (Sperm (5 ml)); 283 ± 15 pmol with S. purpuratus sperm [7] (Sperm (10 ml)). Also, the “subsequent activation of oxyHb-inhibited eggs” value with L. pictus eggs [3] is reported as “elevate fertilization envelopes”.

B1: nNOS: recombinant neuronal nitric oxide synthase from Stratagene (protein, UniProt P29475 1-1434, looked up)
Nitric oxide synthase 1: MEDHMFGVQQIQPNVISVRLFKRKVGGLGFLVKERVSKPPVIISDLIRGGAAEQSGLIQAGDIILAVNGRPLVDLSYDSALEVLRGIASETHVVLILRGPEGFTTHLETTFTGDGTPKTIRVTQPLGPPTKAVDLSHQPPAGKEQPLAVDGASGPGNGPQHAYDDGQEAGSLPHANGLAPRPPGQDPAKKATRVSLQGRGENNELLKEIEPVLSLLTSGSRGVKGGAPAKAEMKDMGIQVDRDLDGKSHKPLPLGVENDRVFNDLWGKGNVPVVLNNPYSEKEQPPTSGKQSPTKNGSPSKCPRFLKVKNWETEVVLTDTLHLKSTLETGCTEYICMGSIMHPSQHARRPEDVRTKGQLFPLAKEFIDQYYSSIKRFGSKAHMERLEEVNKEIDTTSTYQLKDTELIYGAKHAWRNASRCVGRIQWSKLQVFDARDCTTAHGMFNYICNHVKYATNKGNLRSAITIFPQRTDGKHDFRVWNSQLIRYAGYKQPDGSTLGDPANVQFTEICIQQGWKPPRGRFDVLPLLLQANGNDPELFQIPPELVLEVPIRHPKFEWFKDLGLKWYGLPAVSNMLLEIGGLEFSACPFSGWYMGTEIGVRDYCDNSRYNILEEVAKKMNLDMRKTSSLWKDQALVEINIAVLYSFQSDKVTIVDHHSATESFIKHMENEYRCRGGCPADWVWIVPPMSGSITPVFHQEMLNYRLTPSFEYQPDPWNTHVWKGTNGTPTKRRAIGFKKLAEAVKFSAKLMGQAMAKRVKATILYATETGKSQAYAKTLCEIFKHAFDAKVMSMEEYDIVHLEHETLVLVVTSTFGNGDPPENGEKFGCALMEMRHPNSVQEERKSYKVRFNSVSSYSDSQKSSGDGPDLRDNFESAGPLANVRFSVFGLGSRAYPHFCAFGHAVDTLLEELGGERILKMREGDELCGQEEAFRTWAKKVFKAACDVFCVGDDVNIEKANNSLISNDRSWKRNKFRLTFVAEAPELTQGLSNVHKKRVSAARLLSRQNLQSPKSSRSTIFVRLHTNGSQELQYQPGDHLGVFPGNHEDLVNALIERLEDAPPVNQMVKVELLEERNTALGVISNWTDELRLPPCTIFQAFKYYLDITTPPTPLQLQQFASLATSEKEKQRLLVLSKGLQEYEEWKWGKNPTIVEVLEEFPSIQMPATLLLTQLSLLQPRYYSISSSPDMYPDEVHLTVAIVSYRTRDGEGPIHHGVCSSWLNRIQADELVPCFVRGAPSFHLPRNPQVPCILVGPGTGIAPFRSFWQQRQFDIQHKGMNPCPMVLVFGCRQSKIDHIYREETLQAKNKGVFRELYTAYSREPDKPKKYVQDILQEQLAESVYRALKEQGGHIYVCGDVTMAADVLKAIQRIMTQQGKLSAEDAGVFISRMRDDNRYHEDIFGVTLRTYEVTNRLRSESIAFIEESKKDTDEVFSS
As for B1, in the assay with L. pictus eggs [2] (recombinant nNOS, with CaM), the “injected amount yielding activation” value is on record as approximately 0.0075 pg.
